One test concerns the target human HDAC2 (Homo sapiens (Human), UniProt Q92769). The experiment in a line: HDAC2 inhibition assay (modified FLUOR DE LYS, 384-well). To be noted: […] enzyme, 40 μM substrate BML-KI104, 3 h pre-incubation; read-out: HDAC2 IC50. It is filed as biochemical.
A further test has as its target human HDAC8 (Homo sapiens (Human), UniProt Q9BY41). Description: HDAC8 inhibition assay (modified FLUOR DE LYS, 384-well). It is filed as biochemical. Conditions: […] enzyme, 200 μM substrate BML-KI178, 3 h pre-incubation; read-out: HDAC8 IC50.
Another test deals with human HDAC1 (Homo sapiens (Human), UniProt Q13547).
Sequence of human HDAC1 (Q13547 whole entry): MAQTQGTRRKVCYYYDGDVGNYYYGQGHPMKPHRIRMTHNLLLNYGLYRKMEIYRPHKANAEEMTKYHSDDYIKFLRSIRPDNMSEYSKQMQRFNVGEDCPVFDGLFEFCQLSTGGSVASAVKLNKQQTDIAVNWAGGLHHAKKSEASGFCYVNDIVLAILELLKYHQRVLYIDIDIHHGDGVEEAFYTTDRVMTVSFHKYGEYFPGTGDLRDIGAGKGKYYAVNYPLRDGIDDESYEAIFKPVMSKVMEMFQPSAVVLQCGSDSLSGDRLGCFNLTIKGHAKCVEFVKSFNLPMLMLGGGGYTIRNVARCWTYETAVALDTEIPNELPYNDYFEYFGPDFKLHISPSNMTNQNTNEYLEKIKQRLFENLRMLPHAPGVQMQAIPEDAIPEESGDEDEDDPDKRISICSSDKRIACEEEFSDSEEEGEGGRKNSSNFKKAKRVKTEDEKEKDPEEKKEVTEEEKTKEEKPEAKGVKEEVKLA
Test [1] has as its target human HDAC3/SMRT heterodimer (Homo sapiens (Human), UniProt O15379).
A further test concerns the target HDAC6 (Homo sapiens (Human), UniProt Q9UBN7).
In another test the test system is KARN cells (Jurkat 2C4). Description: cells. To be noted: Homo sapiens.
[2] abbreviates: read-out: Karn EC50 nM 0.1% NHS, 0.1% normal human serum, luciferase induction, 2 μM SAHA = 100%.
Where [3] appears, read: read-out: Karn EC50 nM 5% NHS, 5% normal human serum, luciferase induction, 2 μM SAHA = 100%.

SMILES strings stand for the structures. Read-outs that look alike come from different tables or passages of the source.

Sequence of human HDAC8 (Q9BY41 whole entry): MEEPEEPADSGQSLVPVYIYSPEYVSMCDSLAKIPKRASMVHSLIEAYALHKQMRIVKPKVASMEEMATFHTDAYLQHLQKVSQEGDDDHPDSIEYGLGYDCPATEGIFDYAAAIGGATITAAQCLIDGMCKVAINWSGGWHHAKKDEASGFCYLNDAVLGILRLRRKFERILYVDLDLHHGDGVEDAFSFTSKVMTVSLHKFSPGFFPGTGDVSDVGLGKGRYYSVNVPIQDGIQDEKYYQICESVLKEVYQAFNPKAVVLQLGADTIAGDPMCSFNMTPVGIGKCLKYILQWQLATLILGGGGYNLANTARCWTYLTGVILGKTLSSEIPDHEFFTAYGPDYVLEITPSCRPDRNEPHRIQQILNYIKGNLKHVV
Sequence of HDAC6 (Q9UBN7 whole entry): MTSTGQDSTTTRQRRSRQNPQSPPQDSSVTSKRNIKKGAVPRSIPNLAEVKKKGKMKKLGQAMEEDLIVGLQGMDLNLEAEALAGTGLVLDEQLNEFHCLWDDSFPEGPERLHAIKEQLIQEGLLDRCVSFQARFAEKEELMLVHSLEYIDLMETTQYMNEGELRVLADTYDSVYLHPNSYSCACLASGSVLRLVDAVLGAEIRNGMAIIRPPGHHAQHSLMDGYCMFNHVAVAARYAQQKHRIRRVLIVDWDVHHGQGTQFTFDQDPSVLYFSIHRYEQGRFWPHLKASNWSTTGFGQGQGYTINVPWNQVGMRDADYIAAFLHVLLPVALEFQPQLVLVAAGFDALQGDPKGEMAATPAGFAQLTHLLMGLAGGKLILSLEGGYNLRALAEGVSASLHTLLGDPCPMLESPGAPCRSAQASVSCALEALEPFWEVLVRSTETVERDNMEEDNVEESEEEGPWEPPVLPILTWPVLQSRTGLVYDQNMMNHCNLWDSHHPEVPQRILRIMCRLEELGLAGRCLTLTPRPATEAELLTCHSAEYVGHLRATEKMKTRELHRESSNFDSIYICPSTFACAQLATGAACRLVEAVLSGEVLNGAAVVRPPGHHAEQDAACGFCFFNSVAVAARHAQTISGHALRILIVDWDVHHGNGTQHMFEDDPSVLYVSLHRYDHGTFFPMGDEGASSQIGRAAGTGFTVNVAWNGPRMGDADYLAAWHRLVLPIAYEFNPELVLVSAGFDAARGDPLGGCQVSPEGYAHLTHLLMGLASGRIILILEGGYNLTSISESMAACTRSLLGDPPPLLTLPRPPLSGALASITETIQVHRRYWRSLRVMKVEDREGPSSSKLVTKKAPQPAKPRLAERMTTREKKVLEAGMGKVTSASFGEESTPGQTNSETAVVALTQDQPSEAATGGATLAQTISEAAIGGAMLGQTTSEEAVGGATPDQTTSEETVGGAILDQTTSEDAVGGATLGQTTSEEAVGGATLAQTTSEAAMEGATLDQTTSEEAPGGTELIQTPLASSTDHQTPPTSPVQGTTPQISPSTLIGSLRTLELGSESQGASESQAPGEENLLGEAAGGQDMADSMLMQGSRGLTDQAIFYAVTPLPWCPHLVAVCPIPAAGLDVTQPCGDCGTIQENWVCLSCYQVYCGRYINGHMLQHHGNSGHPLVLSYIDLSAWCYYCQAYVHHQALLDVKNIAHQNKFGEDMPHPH
Sequence of human HDAC3/SMRT heterodimer (O15379 whole entry): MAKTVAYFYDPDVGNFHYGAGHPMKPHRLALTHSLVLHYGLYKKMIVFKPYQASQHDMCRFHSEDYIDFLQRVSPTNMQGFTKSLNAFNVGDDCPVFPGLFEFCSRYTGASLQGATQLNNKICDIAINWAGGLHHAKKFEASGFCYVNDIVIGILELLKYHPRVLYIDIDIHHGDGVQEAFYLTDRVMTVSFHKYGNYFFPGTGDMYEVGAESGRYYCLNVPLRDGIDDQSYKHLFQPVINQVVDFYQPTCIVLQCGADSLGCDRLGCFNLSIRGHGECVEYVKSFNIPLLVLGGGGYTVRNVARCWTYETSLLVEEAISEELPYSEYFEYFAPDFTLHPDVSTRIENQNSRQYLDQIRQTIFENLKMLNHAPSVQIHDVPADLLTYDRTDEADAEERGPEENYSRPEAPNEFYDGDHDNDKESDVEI
Sequence of human HDAC3/SMRT heterodimer (Q9Y618 1-899 partner): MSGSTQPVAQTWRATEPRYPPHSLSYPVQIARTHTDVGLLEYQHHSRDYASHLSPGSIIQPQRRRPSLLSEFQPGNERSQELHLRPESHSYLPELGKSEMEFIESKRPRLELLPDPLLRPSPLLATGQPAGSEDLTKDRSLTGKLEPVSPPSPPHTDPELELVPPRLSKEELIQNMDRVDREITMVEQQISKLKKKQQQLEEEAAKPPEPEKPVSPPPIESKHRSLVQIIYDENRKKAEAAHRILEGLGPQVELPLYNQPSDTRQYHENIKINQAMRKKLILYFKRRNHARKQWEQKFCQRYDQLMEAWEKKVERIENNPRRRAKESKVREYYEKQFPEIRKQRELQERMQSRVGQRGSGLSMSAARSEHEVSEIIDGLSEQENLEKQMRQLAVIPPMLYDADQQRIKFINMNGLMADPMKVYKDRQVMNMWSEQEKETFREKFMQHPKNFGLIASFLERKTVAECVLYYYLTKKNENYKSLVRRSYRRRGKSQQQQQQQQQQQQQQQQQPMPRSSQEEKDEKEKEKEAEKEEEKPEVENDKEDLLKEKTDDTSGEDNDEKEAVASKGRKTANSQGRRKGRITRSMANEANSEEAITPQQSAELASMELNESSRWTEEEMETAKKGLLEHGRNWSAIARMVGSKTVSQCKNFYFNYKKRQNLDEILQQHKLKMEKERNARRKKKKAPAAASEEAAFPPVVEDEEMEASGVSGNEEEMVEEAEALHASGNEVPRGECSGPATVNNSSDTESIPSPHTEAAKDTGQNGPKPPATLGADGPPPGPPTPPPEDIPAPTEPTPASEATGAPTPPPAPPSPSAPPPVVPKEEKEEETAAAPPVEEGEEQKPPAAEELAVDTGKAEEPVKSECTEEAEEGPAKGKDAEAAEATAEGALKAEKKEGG
Sequence of human HDAC2 (Q92769 whole entry): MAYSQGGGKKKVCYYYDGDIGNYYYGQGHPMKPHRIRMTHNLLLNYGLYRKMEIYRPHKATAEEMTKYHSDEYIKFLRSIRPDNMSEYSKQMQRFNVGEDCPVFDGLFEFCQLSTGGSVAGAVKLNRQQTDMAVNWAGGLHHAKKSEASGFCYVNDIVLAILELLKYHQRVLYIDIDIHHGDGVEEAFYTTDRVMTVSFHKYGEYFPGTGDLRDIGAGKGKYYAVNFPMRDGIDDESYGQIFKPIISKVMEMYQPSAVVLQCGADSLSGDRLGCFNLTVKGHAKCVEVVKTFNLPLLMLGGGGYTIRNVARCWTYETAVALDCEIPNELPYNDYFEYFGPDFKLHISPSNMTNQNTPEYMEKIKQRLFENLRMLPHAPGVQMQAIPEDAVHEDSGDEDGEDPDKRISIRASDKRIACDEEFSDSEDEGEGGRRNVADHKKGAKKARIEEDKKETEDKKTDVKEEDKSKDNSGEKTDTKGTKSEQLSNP
Procedure for HDAC6: The histone deacetylase activities of HDAC1, HDAC2, HDAC3, HDAC6, and HDAC8 were measured in modified FLUOR DE LYS assays in 384-well format. In this assay, HDAC enzymes are initially incubated with an F-acetyl (or -trifluoroacetyl)-L-lysine-containing substrate with a C-terminal amide having aminomethylcoumarin as the amine component. HDACs cleave the F-acetyl group, rendering the resulting product susceptible to AMC cleavage by trypsin. The released AMC is then detected by its fluorescence. […] All steps were performed at room temperature (23° C.). The assay was performed by pre-incubating serial dilutions of test compounds with the target HDAC prior to initiation with substrate. […] Final conditions used for each assay were: 1. […] The reactions were stopped and developed by addition of 30 ul of HDAC developer solution containing a saturating level of HDAC inhibitor as follows: 1. […] For data analysis, background subtracted product (fluorescence) vs. time data for each inhibitor concentration was fitted using a 4-parameter fit.

In the case of `CN1CCC(C(=O)N[C@@H](CCCCCC(=O)c2nccs2)c2nc(-c3ccc(F)cc3)c[nH]2)CC1` [Example 6, (S)-N-(1-(4-(4-fluorophenyl)-1H-imidazol-2-yl)-7-oxo-7-(thiazol-2-yl)heptyl)-1-methylpiperidine-4-carboxamide], the IC50 – broadly, the concentration that gives 50% inhibition – on human HDAC2 turned out to be 14 nM; on human HDAC8, 55 nM; against human HDAC1, 2.9 nM; in test [1], 1.5 nM; at HDAC6 it was 45000 nM. Moreover, the EC50 (usually the concentration that produces a half-maximal response) with KARN cells (Jurkat 2C4) (setting [2]) is 87 nM; with KARN cells (Jurkat 2C4) (setting [3]), 160 nM.
Consider `N[C@@H](CCCCCC(=O)c1ncco1)c1nc(-c2ccc3nn(C4CC4)cc3c2)c[nH]1` [Example 14], for which the 50% inhibitory concentration (IC50) worked out at 4.5 nM on human HDAC2; 3100 nM at human HDAC8; 0.9 nM on human HDAC1; 1.1 nM in test [1]; 45000 nM against HDAC6. Besides, the half-maximal effective concentration (EC50) in the test with KARN cells (Jurkat 2C4) (setting [2]) was determined as 390 nM; in the test with KARN cells (Jurkat 2C4) (setting [3]), 270 nM.
For `COc1nc2ccccc2cc1-c1c[nH]c([C@@H](N)CCCCCC(=O)c2ncco2)n1` [Example 15], the concentration for half-maximal inhibition (IC50) was 18 nM on human HDAC2; 720 nM on human HDAC8; 5.2 nM at human HDAC1; 7.3 nM in test [1]; 40000 nM at HDAC6. The figures for the concentration for a half-maximal effect (EC50) in the test on KARN cells (Jurkat 2C4) (setting [2]) and with KARN cells (Jurkat 2C4) (setting [3]) were 180 nM and 670 nM, respectively.
As for `CC(C)n1ccc2cc(-c3cnc([C@@H](N)CCCCCC(=O)c4ncco4)[nH]3)ccc2c1=O` [Example 17], the IC50 on human HDAC2 worked out at 17 nM; on human HDAC8, 2900 nM; against human HDAC1, 2.1 nM; in test [1], 4.1 nM; at HDAC6, 45000 nM. The values for the EC50 in the test on KARN cells (Jurkat 2C4) (setting [2]) and in the test with KARN cells (Jurkat 2C4) (setting [3]) were 650 nM and 590 nM, respectively.
As for `N[C@@H](CCCCCC(=O)c1ncco1)c1ncc(-c2ccc3nc(N4CCCC4)ccc3c2)[nH]1` [Example 19], the half-inhibitory concentration (IC50) on human HDAC2 is 9.4 nM; on human HDAC8, 3600 nM; at human HDAC1, 2 nM; in test [1], 1.5 nM; at HDAC6, greater than 1500 nM. Moreover, the 50% effective concentration (EC50) was found to be 210 nM in the test on KARN cells (Jurkat 2C4) (setting [2]) and 420 nM with KARN cells (Jurkat 2C4) (setting [3]).
`COc1cc2c(ccc(=O)n2C)cc1-c1cnc([C@@H](N)CCCCCC(=O)c2ncco2)[nH]1` [Example 21]: the IC50 was 8.4 nM on human HDAC2; 490 nM at human HDAC8; 1.9 nM at human HDAC1; 1.5 nM in test [1]; greater than 4500 nM at HDAC6. Moreover, the EC50 in the test with KARN cells (Jurkat 2C4) (setting [2]) and in the test on KARN cells (Jurkat 2C4) (setting [3]) was 110 nM each time.
As for `Cc1ccc2cc(-c3cnc([C@@H](N)CCCCCC(=O)c4ncco4)[nH]3)c(Cl)cc2n1` [Example 22], the IC50 at human HDAC2 amounted to 38 nM; on human HDAC8, 1500 nM; at human HDAC1 it was 10 nM; in test [1], 6.7 nM; at HDAC6, 45000 nM. Moreover, the 50% effective concentration (EC50) stood at 130 nM with KARN cells (Jurkat 2C4) (setting [2]) and 290 nM in the test with KARN cells (Jurkat 2C4) (setting [3]).
On to `CCn1cc(-c2ccc3nc(C)ccc3c2)nc1[C@@H](N)CCCCCC(=O)c1ncco1` [Example 30, (S)-7-amino-7-(1-ethyl-4-(2-methylquinolin-6-yl)-1H-imidazol-2-yl)-1-(oxazol-2-yl)heptan-1-one], for which the IC50 worked out at 230 nM on human HDAC2; 21000 nM on human HDAC8; 49 nM on human HDAC1; 48 nM in test [1]; 38800 nM against HDAC6. Moreover, the EC50 in the test on KARN cells (Jurkat 2C4) (setting [2]) came to 2500 nM; in the test with KARN cells (Jurkat 2C4) (setting [3]) it was 4000 nM.
As for `CN1CCC2(CC1)C[C@@H]2C(=O)N[C@@H](CCCCCC(=O)c1ccon1)c1nc(-c2ccccc2F)c[nH]1` [Example 39], the IC50 at human HDAC2 is 0.57 nM; at human HDAC8 it was 2 nM; against human HDAC1, 0.1 nM; in test [1], 0.13 nM; at HDAC6, 45000 nM. The EC50 with KARN cells (Jurkat 2C4) (setting [2]) is 3 nM; in the test with KARN cells (Jurkat 2C4) (setting [3]) it was 4 nM.
With `COc1nc2ccccc2cc1-c1c[nH]c([C@H](CCCCCC(=O)c2ccon2)NC(=O)C2CCN(C)CC2)n1` [Example 40], the concentration for half-maximal inhibition (IC50) on human HDAC2 was 1.8 nM; on human HDAC8, 3.3 nM; against human HDAC1, 1.5 nM; in test [1], 1.5 nM; at HDAC6 it was 2000 nM. The values for the 50% effective concentration (EC50) in the test on KARN cells (Jurkat 2C4) (setting [2]) and in the test on KARN cells (Jurkat 2C4) (setting [3]) were 15 nM and 58 nM, respectively.
As for `COc1nc2ccccc2cc1-c1cnc([C@H](CCCCCC(=O)c2ncco2)NC(=O)CN(C)C)[nH]1` [Example 41], the half-maximal inhibitory concentration (IC50) at human HDAC2 was 2.6 nM; on human HDAC8 it was 65 nM; on human HDAC1, 0.39 nM; in test [1] it was 0.71 nM; against HDAC6 it was 3300 nM. Also, the results for the EC50 in the test with KARN cells (Jurkat 2C4) (setting [2]) and with KARN cells (Jurkat 2C4) (setting [3]) were 16 nM and 140 nM, respectively.
In the case of `COc1nc2ccccc2cc1-c1cnc([C@H](CCCCCC(=O)c2ncco2)NC(=O)c2cncs2)[nH]1` [Example 42], the IC50 at human HDAC2 was determined as 5.4 nM; at human HDAC8 it was 27 nM; against human HDAC1, 1.7 nM; in test [1] it was 1.5 nM; at HDAC6 it was 13000 nM. Also, the half-maximal effective concentration (EC50) with KARN cells (Jurkat 2C4) (setting [2]) came to 52 nM; in the test with KARN cells (Jurkat 2C4) (setting [3]) it was 340 nM.
As for `Cc1ccc2cc(-c3c[nH]c([C@H](CCCCCC(=O)c4ccon4)NC(=O)[C@H]4CC45CCN(C)CC5)n3)ccc2n1` [Example 44], the IC50 amounted to 0.97 nM on human HDAC2; 5.7 nM on human HDAC8; 0.24 nM against human HDAC1; 0.26 nM in test [1]; 45000 nM at HDAC6. The results for the EC50 in the test on KARN cells (Jurkat 2C4) (setting [2]) and in the test with KARN cells (Jurkat 2C4) (setting [3]) were 9.5 nM and 9.1 nM, respectively.
For `Cc1cc(C(=O)CCCCC[C@H](N)c2nc(-c3ccccc3F)c[nH]2)no1` [Example 45], the half-maximal inhibitory concentration (IC50) stood at 76 nM at human HDAC2; 1200 nM on human HDAC8; 8.9 nM at human HDAC1; 19 nM in test [1]; 45000 nM at HDAC6. Moreover, the EC50 in the test with KARN cells (Jurkat 2C4) (setting [2]) amounted to 460 nM; in the test on KARN cells (Jurkat 2C4) (setting [3]), 1900 nM.
`CN(C)CC(=O)N[C@@H](CCCCCC(=O)c1ncco1)c1ncc(-c2ccc3c(ccc(=O)n3C)c2)[nH]1` [Example 46]: the concentration for half-maximal inhibition (IC50) is 9.6 nM on human HDAC2; 91 nM on human HDAC8; 1.7 nM against human HDAC1; 1.5 nM in test [1]; 45000 nM on HDAC6. Also, the concentration for a half-maximal effect (EC50) in the test on KARN cells (Jurkat 2C4) (setting [2]) amounted to 31 nM; with KARN cells (Jurkat 2C4) (setting [3]), 44 nM.
As for `CCN(CC)CC(=O)N[C@@H](CCCCCC(=O)c1ncco1)c1ncc(-c2cc3ccccc3nc2OC)[nH]1` [Example 50], the 50% inhibitory concentration (IC50) on human HDAC2 stood at 3.2 nM; on human HDAC8, 47 nM; on human HDAC1, 0.99 nM; in test [1], 1.3 nM; at HDAC6, 1700 nM. In addition, the values for the EC50 in the test on KARN cells (Jurkat 2C4) (setting [2]) and in the test with KARN cells (Jurkat 2C4) (setting [3]) were 21 nM and 140 nM, respectively.
Take `COc1nc2ccccc2cc1-c1cnc([C@H](CCCCCC(=O)c2ncco2)NC(=O)CN2CCC2)[nH]1` [Example 51]: the IC50 on human HDAC2 is 2.3 nM; at human HDAC8, 31 nM; against human HDAC1, 0.38 nM; in test [1], 0.66 nM; on HDAC6, 690 nM. The EC50 was 11 nM with KARN cells (Jurkat 2C4) (setting [2]) and 56 nM in the test on KARN cells (Jurkat 2C4) (setting [3]).
For `COc1nc2ccccc2cc1-c1cnc([C@H](CCCCCC(=O)c2ncco2)NC(=O)CN2CCCCC2)[nH]1` [Example 53], the concentration for half-maximal inhibition (IC50) at human HDAC2 was 4.9 nM; at human HDAC8, 92 nM; on human HDAC1, 2.4 nM; in test [1], 1.6 nM; at HDAC6, 1100 nM. In addition, the concentration for a half-maximal effect (EC50) in the test on KARN cells (Jurkat 2C4) (setting [2]) was 26 nM; in the test with KARN cells (Jurkat 2C4) (setting [3]) it was 220 nM.
For the molecule `COc1cc2nc(C)ccc2cc1-c1cnc([C@H](CCCCCC(=O)c2cc(C)on2)NC(=O)CN(C)C)[nH]1` [Example 56], the 50% inhibitory concentration (IC50) worked out at 1.8 nM on human HDAC2; 310 nM at human HDAC8; 0.4 nM on human HDAC1; 0.37 nM in test [1]; 45000 nM against HDAC6. The results for the EC50 with KARN cells (Jurkat 2C4) (setting [2]) and in the test on KARN cells (Jurkat 2C4) (setting [3]) were 6.4 nM and 11 nM, respectively.
With `N[C@@H](CCCCCC(=O)c1ncco1)c1ncc(-c2cccc(F)c2F)[nH]1` [Example 136, (7S)-7-amino-7-[5-(2,3-difluorophenyl)-1H-imidazol-2-yl]-1-(1,3-oxazol-2-yl)heptan-1-one], the concentration for half-maximal inhibition (IC50) at human HDAC2 was 380 nM; at human HDAC8, greater than 900 nM; against human HDAC1 it was 110 nM; in test [1], 100 nM; on HDAC6, greater than 900 nM.
As to `N[C@@H](CCCCCC(=O)c1ncco1)c1ncc(-c2cc(C(F)(F)F)ccc2F)[nH]1` [Example 137, (7S)-7-amino-7-{5-[2-fluoro-5-(trifluoromethyl)phenyl]-1H-imidazol-2-yl}-1-(1,3-oxazol-2-yl)heptan-1-one], the IC50 at human HDAC2 was 240 nM; on human HDAC8, greater than 900 nM; on human HDAC1 it was 61 nM; in test [1] it was 45 nM; against HDAC6, greater than 900 nM.
As for `COc1cc2nc(C)ccc2cc1-c1cnc([C@H](CCCCCC(=O)c2ncco2)NC(=O)CN2CCNCC2=O)[nH]1` [Example 159, N-[(1S)-1-[5-(7-methoxy-2-methylquinolin-6-yl)-1H-imidazol-2-yl]-7-(1,3-oxazol-2-yl)-7-oxoheptyl]-2-(2-oxopiperazin-1-yl)acetamide], the IC50 on human HDAC2 was determined as 5.8 nM; on human HDAC1, 0.82 nM; in test [1], 1.7 nM; at HDAC6, 2900 nM. Moreover, the figures for the concentration giving a half-maximal response (EC50) in the test on KARN cells (Jurkat 2C4) (setting [2]) and in the test on KARN cells (Jurkat 2C4) (setting [3]) were 1500 nM and 2900 nM, respectively.
As for `COc1cc2nc(C)ccc2cc1-c1cnc([C@H](CCCCCC(=O)c2ncco2)NC(=O)c2cc3n(n2)CCCC3)[nH]1` [Example 164], the IC50 is 18 nM on human HDAC2, 3.3 nM on human HDAC1, 0.87 nM in test [1] and greater than 900 nM on HDAC6. The EC50 was 85 nM in the test on KARN cells (Jurkat 2C4) (setting [2]) and 290 nM with KARN cells (Jurkat 2C4) (setting [3]).

The values are drawn from patent US12331044B2, “Inhibitors of histone deacetylase useful for the treatment or prevention of HIV infection” (Merck Sharp & Dohme LLC, priority 2018, dated 2025).
